From patent US9365522B2, “Pyrazole amide derivative” (AMGEN INC., priority 2015, dated 2016)

Target: T1, human RORγ-LBD (Homo sapiens, UniProt P51449)
T1 construct: made in house; host or cells: E. coli (BL-21)
T1 sequence (P51449 262-518): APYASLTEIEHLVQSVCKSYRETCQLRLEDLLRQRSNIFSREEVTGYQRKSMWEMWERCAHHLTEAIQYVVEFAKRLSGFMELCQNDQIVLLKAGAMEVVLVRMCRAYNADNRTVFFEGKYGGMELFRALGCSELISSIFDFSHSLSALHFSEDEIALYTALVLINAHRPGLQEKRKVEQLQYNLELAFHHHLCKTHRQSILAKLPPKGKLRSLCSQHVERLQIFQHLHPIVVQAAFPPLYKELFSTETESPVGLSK
Test: ROR gamma coactivator peptide recruitment Alphascreen assay (RORγ-LBD binding to GRIP1 coactivator peptide)
Assay type: biochemical
Settings: 5 nM human RORγ-LBD, 30 nM 7-β-hydroxycholesterol, 50 nM biotinylated GRIP1 coactivator peptide, overnight incubation at room temperature; read-out: result (pIC50, RORγ coactivator peptide recruitment Alphascreen assay) (converted)
In short: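 His/Flag-tagged human RORγ-LBD (aa 262-518, E. coli-expressed, 5 nM) with agonist 7-β-hydroxycholesterol (30 nM) and biotinylated GRIP1 LXXLL peptide (50 nM) in HEPES pH 7.4 buffer, 2.5% DMSO. Compound 1-in-2 dilutions; Alphascreen bead signal read after overnight incubation at room temperature; pIC50 calculated.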

| Compound | IC50 |
| --- | --- |
| CC1(C)[C@@H]2C[C@H](N(CC(=O)c3c(F)cccc3Cl)C(=O)c3cnn([C@H]4CC[C@](C)(C(=O)O)CC4)c3C(F)(F)F)C[C@@H]21 [Example 658, trans-4-(4-((2-(2-chloro-6-fluorophenyl)-2-oxoethyl)((1R,3r,5S)-6,6-dimethylbicyclo[3.1.0]hex-3-yl)carbamoyl)-5-(trifluoromethyl)-1H-pyrazol-1-yl)-1-methylcyclohexanecarboxylic acid] | 1.95 nM |
| CC(C)(C)CN(CC(=O)c1c(Cl)cncc1Cl)C(=O)c1cnn([C@@H]2CCCC[C@H]2CC(=O)O)c1C(F)(F)F [Example 659, ((1S,2R)-2-(4-((2-(3,5-dichloro-4-pyridinyl)-2-oxoethyl)(2,2-dimethylpropyl)carbamoyl)-5-(trifluoromethyl)-1H-pyrazol-1-yl)cyclohexyl)acetic acid] | 331 nM |
| C[C@@]1(CN(CC(=O)c2c(Cl)cncc2Cl)C(=O)c2cnn([C@H]3CC[C@](C)(C(=O)O)CC3)c2C(F)(F)F)CCCO1 [Example 660, trans-4-(4-((2-(3,5-dichloro-4-pyridinyl)-2-oxoethyl)(((2S)-2-methyltetrahydro-2-furanyl)methyl)carbamoyl)-5-(trifluoromethyl)-1H-pyrazol-1-yl)-1-methylcyclohexanecarboxylic acid] | 25.7 nM |
| C[C@]1(CN(CC(=O)c2c(Cl)cncc2Cl)C(=O)c2cnn([C@H]3CC[C@](C)(C(=O)O)CC3)c2C(F)(F)F)CCCO1 [Example 661, trans-4-(4-((2-(3,5-dichloro-4-pyridinyl)-2-oxoethyl)(((2R)-2-methyltetrahydro-2-furanyl)methyl)carbamoyl)-5-(trifluoromethyl)-1H-pyrazol-1-yl)-1-methylcyclohexanecarboxylic acid] | 20.4 nM |
| C[C@H]1C[C@H](n2ncc(C(=O)N(CC(=O)c3c(Cl)cccc3Cl)CC3CC(C)(C)C3)c2C(F)(F)F)CC[C@H]1C(=O)O [Example 662, (1R,2S,4R)-4-(4-((2-(2,6-dichlorophenyl)-2-oxoethyl)((3,3-dimethylcyclobutyl)methyl)carbamoyl)-5-(trifluoromethyl)-1H-pyrazol-1-yl)-2-methylcyclohexanecarboxylic acid] | 7.08 nM |

Other lines, results leading:

| IC50 | Compound |
| --- | --- |
| 1.95 nM | C[C@@H]1C[C@@H](n2ncc(C(=O)N(CC(=O)c3c(Cl)cccc3Cl)CC3CC(C)(C)C3)c2C(F)(F)F)CC[C@@H]1C(=O)O [Example 663, (1S,2R,4S)-4-(4-((2-(2,6-dichlorophenyl)-2-oxoethyl)((3,3-dimethylcyclobutyl)methyl)carbamoyl)-5-(trifluoromethyl)-1H-pyrazol-1-yl)-2-methylcyclohexanecarboxylic acid] |
| 1.45 nM | C[C@]1(C(=O)O)CC[C@H](n2ncc(C(=O)N(CC(=O)c3c(Cl)cc(F)cc3Cl)CC3CCCCC3)c2C(F)(F)F)CC1 [Example 664, trans-4-(4-((cyclohexylmethyl)(2-(2,6-dichloro-4-fluorophenyl)-2-oxoethyl)carbamoyl)-5-(trifluoromethyl)-1H-pyrazol-1-yl)-1-methylcyclohexanecarboxylic acid] |
| 1.38 nM | Cc1cc(Cl)c(C(=O)CN(CC2(F)CCCCC2)C(=O)c2cnn([C@H]3CC[C@](C)(C(=O)O)CC3)c2C(F)(F)F)c(Cl)c1 [Example 665, trans-4-(4-((2-(2,6-dichloro-4-methylphenyl)-2-oxoethyl)((1-fluorocyclohexyl)methyl)carbamoyl)-5-(trifluoromethyl)-1H-pyrazol-1-yl)-1-methylcyclohexanecarboxylic acid] |
| 4.57 nM | C[C@]1(C(=O)O)CC[C@H](n2ncc(C(=O)N(CC(=O)c3c(Cl)cncc3Cl)CC3(F)CCCCC3)c2C(F)(F)F)CC1 [Example 666, trans-4-(4-((2-(3,5-dichloro-4-pyridinyl)-2-oxoethyl)((1-fluorocyclohexyl)methyl)carbamoyl)-5-(trifluoromethyl)-1H-pyrazol-1-yl)-1-methylcyclohexanecarboxylic acid] |
